From US20080125488A1, “Lactate Containing Pharmaceutical Composition and Uses Thereof” (priority 2003, published 2008)

Tests used:
[1] = test system: isolated rat hearts; test: In vitro model for ischemia (perfused isolated rat hearts); conditions: 5 mM lactate
Protocol: In order to determine the suitability of lactate for the treatment of conditions such as ischemia-reperfusion, isolated rat harts were perfused either with perfusion medium containing 5 mM lactate or with a perfusion medium (control) containing 0.2 mM of hexanoic acid and 5.5 mM glucose in accordance with the protocol described by Garnier A. et al., J Mol Cell Cardiol 1996, 28, 1671-1682.

[2] = test system: patients suffering from brain injury (brain trauma) with increased intracranial pressure; test: Treatment of increased intracranial pressure caused by brain trauma; format: in vivo, human
Protocol: For this purpose, the composition of the invention or the mannitol was administered (infused) to a group of each twelve patients and the ICP was measured every 15 minutes.
The results of this study, in which 12 patients were either treated with mannitol or the hypertonic lactate solution of the invention, are shown in FIGS. 1 to 4 as well as in Tables 2 to 5.

Row | Structure (SMILES) | rate pressure product ([1]; 40 minutes perfusion after 40 minutes ischemia, compared to control (FIG. 9A)) | heart rate ([1]; 40 minutes perfusion after 40 minutes ischemia, compared to control (FIG. 9C)) | diastolic pressure ([1]; compared to control (FIG. 9B)) | CPP after treatment ([2]; after treatment) [mm Hg] | ICP after treatment ([2]; after treatment) [mm Hg] | CPP before treatment ([2]; before treatment) [mm Hg] | ICP before treatment ([2]; before treatment, mean ± sem) [mm Hg] | number of survival ([2]; brain trauma patients, survivors out of group) | number of successful treatment (only first treatment) ([2]; first treatment only) | patients that survived the brain trauma ([2]; groups of 12 patients (FIG. 2)) | number of successful treatment (all treatments) ([2]; out of all ICH episodes treated) | number of cross over ([2]; patients switched to the other treatment after failure) | decrease in the intracranial pressure ([2]; within the first 30 minutes after the treatment (FIG. 1)) | ICP as share of the initial untreated ICP ([2]; within the next 3.5 hours after the treatment (rebound, FIG. 1))
1 | CC(O)C(=O)O (centres unmarked) [lactate] | significantly higher and prolonged increase | significantly higher and prolonged increase | significantly decreased | – | – | – | – | – | – | – | – | – | – | –
2 | OC[C@@H](O)[C@@H](O)[C@H](O)[C@H](O)CO [mannitol] | – | – | – | 73.2 ± 2.4 | 25.7 ± 1.7 | 67.6 ± 2.2 | 31 ± 1.8 | 7 out of 11 | 5 out of 11 | 7 | 14 out of 25 | 4 out of 11 | about 20% | about 90%
